We go through 60 molecules from patent US7244727B2, “Fused bicyclic nitrogen-containing heterocycles” (Japan Tobacco Inc., priority 2002, dated 2007).

System in one series: not given
Assay: not given
Details: not given
A word on the melting point: it is the temperature of the solid-liquid transition. In the case of `CC1(C)Oc2ncnc(N)c2N=C1c1ccc([C@H]2CC[C@H](CCNC(=O)[C@@H]3C[C@@H](O)CN3)CC2)cc1` [Example 2-183], the melting point was in the range of 201 to 203 °C.

Regarding `Cc1nc(N)c2c(n1)OC(C)(C)C(c1ccc(C3CC(CCC(=O)O)C3)cc1)=N2` (centres unmarked) [Example 2-149], the melting point was 237 to 238 °C. Still for that read-out and setting: then `CC1(C)Oc2ncnc(N)c2N=C1c1ccc([C@H]2CC[C@H](Cc3cc(O)[nH]n3)CC2)cc1` [Example 2-59], with above 250 °C; and `Cc1nc(N)c2c(n1)OC(C)(C)C(c1ccc([C@H]3CC[C@H](CCNC(=O)CO)CC3)cc1)=N2` [Example 2-160], with 185 to 186 °C. On the same count and under the same terms, then `Nc1ncnc2c1N=C(c1ccc(F)cc1)CO2` [Example 1-2], with above 220 °C; and `CC1(C)Oc2ncnc(N)c2N=C1c1ccc([C@H]2CC[C@H](C(=O)NCCO)CC2)cc1` [Example 2-203], with 235 to 237 °C; and `CC1(C)Oc2ncnc(N)c2N=C1c1ccc([C@H]2CC[C@H](C(=O)NCC(=O)O)CC2)cc1` [Example 2-205], with above 250 °C. Same read-out and setting: in the case of `CN(C(=O)CO)[C@H]1CC[C@H](c2ccc(C3=Nc4c(N)ncnc4OC3(C)C)cc2)CC1` [Example 2-105] it was above 250 °C; in that of `CC(C)NC[C@H]1CC[C@H](c2ccc(C3=Nc4c(N)ncnc4OC3(C)C)cc2)CC1` [Example 2-114], 250 °C; in that of `CC1(C)Oc2ncnc(N)c2N=C1c1ccc([C@H]2CC[C@H](CN3CCN(C(N)=O)CC3)CC2)cc1` [Example 2-246], 158 to 160 °C. In turn, `CC1(C)Oc2ncnc(N)c2N=C1c1ccc(-c2ccncc2)cc1` [Example 2-28] displayed a melting point above 250 °C. The same measure, in the same setting: then `CC1(C)Oc2ncnc(N)c2N=C1c1ccc(-c2ccc(CC(=O)O)cc2)cc1`, with above 270 °C; and `Cc1nc(N)c2c(n1)OC(C)(C)C(c1ccc([C@H]3CC[C@H](CC(=O)O)CC3)cc1)=N2`, with above 250 °C; and `CC1(C)Oc2ncnc(N)c2N=C1c1ccc(Cl)cc1`, with 210 to 211 °C. On the same count and under the same terms, in the case of `CC1(C)Oc2ncnc(N)c2N=C1c1ccc([C@H]2CC[C@H](Cc3nn[nH]n3)CC2)cc1` it was above 250 °C; in that of `CC1(C)Oc2ncnc(N)c2N=C1c1ccc([C@H]2CC[C@H](CC(N)=O)CC2)cc1`, 224 to 226 °C.

`Cc1nc(N)c2c(n1)OC(C)(C)C(c1ccc([C@H]3CC[C@H](Cc4noc(=O)[nH]4)CC3)c(Cl)c1)=N2` [Example 6-6] showed a melting point above 282 °C. Still for that read-out and setting: in the case of `Cc1nc(N)c2c(n1)OCC(c1ccc(Br)cc1)=N2` it was above 220 °C. With `CCCc1ccc(C2=Nc3c(N)ncnc3OC2(C)C)cc1`, the melting point lay within 185 to 186 °C. `Cc1nc(N)c2c(n1)OC(C)(C)C(c1ccc([C@H]3CC[C@H](CN4CCCC(O)C4=O)CC3)cc1)=N2` (some centres unmarked) [Example 2-170] gave a melting point of 228 to 229 °C. On the same count and under the same terms, in the case of `Cc1nc(N)c2c(n1)OC(C)(C)C(c1ccc([C@H]3CC[C@H](Cc4n[nH]c(=O)[nH]4)CC3)c(Cl)c1)=N2` [Example 6-5] it was above 300 °C.

In the case of `CC1(C)Oc2ncnc(N)c2N=C1c1ccc(C(C)(C)C)cc1`, the melting point is 220 °C.

Molecule `COc1ccc(C2=Nc3c(N)ncnc3OC2(C)C)cc1` had a melting point of 183 to 184 °C.

In turn, `CC1(C)Oc2ncnc(N)c2NC1c1ccc(Br)cc1` (centres unmarked) showed a melting point above 220 °C. Same read-out and setting: then `CC1(C)Oc2ncnc(N)c2N=C1c1ccc(C2CCC(=O)CC2)cc1`, with above 240 °C. Same read-out and setting: then `Cc1ccc(C2=Nc3c(N)ncnc3OC2(C)C)cc1`, with 161 to 162 °C; and `CC1Oc2ncnc(N)c2N=C1c1ccc(Br)cc1` (centres unmarked), with 222 to 224 °C; and `CC1(C)Oc2ncnc(N)c2N=C1c1ccc([C@H]2CC[C@H](CS(N)(=O)=O)CC2)cc1`, with above 250 °C. Same read-out and setting: in the case of `CC1(C)Oc2ncnc(N)c2N=C1c1ccc(C2CCC(O)CC2)cc1` (centres unmarked) it was 246 to 248 °C. In turn, `CC1(C)Oc2ncnc(N)c2N=C1c1ccc(N2CCCCC2)cc1` showed a melting point of 191 to 193 °C. Still for that read-out and setting: in the case of `CC1(C)Oc2ncnc(N)c2N=C1c1ccc(-c2ccccc2)cc1` it was 218 to 219 °C. In turn, `CC1(C)Oc2ncnc(N)c2N=C1c1ccc(Br)cc1` returned a melting point of 201 to 203 °C. The same measure, in the same setting: in the case of `CC1(C)Oc2ncnc(N)c2N=C1c1ccc(N2CCOCC2)cc1` it was 214 to 219 °C.

With `Nc1ncnc2c1NC(c1ccc(Br)cc1)CO2` (centres unmarked), the melting point was above 200 °C.

Molecule `CC1(C)Oc2ncnc(N)c2N=C1c1ccc(O)cc1` gave a melting point of 245 to 246 °C.

In the case of `CCCCc1ccc(C2=Nc3c(N)ncnc3OC2(C)C)cc1`, the melting point was 157 to 160 °C.

`CC1(C)Oc2ncnc(N)c2N=C1c1ccc(C(C)(C)C(=O)O)cc1` had a melting point above 250 °C. The molecule `CCc1ccc(C2=Nc3c(N)ncnc3OC2(C)C)cc1` yielded a melting point of 135 to 136 °C. Same read-out and setting: in the case of `CC1(C)Oc2ncnc(N)c2N=C1c1ccc(F)cc1` it was 189 to 190 °C; in that of `Cc1nc(N)c2c(n1)OC(C)(C)C(c1ccc([C@H]3CC[C@H](CCc4noc(C(F)(F)F)n4)CC3)cc1)=N2` [Example 2-199], 198 to 200 °C. Still for that read-out and setting: in the case of `CC1(C)Oc2ncnc(N)c2N=C1c1ccc([C@H]2CC[C@H](C(=O)O)CC2)cc1` it was above 250 °C; in that of `CC1(C)Oc2ncnc(N)c2N=C1c1ccc([C@H]2CC[C@H](CCC(=O)O)CC2)cc1`, above 250 °C; in that of `CC1(C)Oc2ncnc(N)c2N=C1c1ccc(C2CCC(F)(F)CC2)cc1`, 226 to 227 °C.

`Cc1nc(N)c2c(n1)OC(C)(C)C(c1ccc([C@H]3CC[C@H](CC(=O)O)CC3)c(O)c1)=N2` [Example 6-7] yielded a melting point above 280 °C. Take `CC(C)c1ccc(C2=Nc3c(N)ncnc3OC2(C)C)cc1`: the melting point fell in the range of 175 to 179 °C. Same read-out and setting: then `CC1(C)Oc2ncnc(N)c2N=C1c1ccccc1`, with 189 to 190 °C; and `Nc1ncnc2c1N=C(c1ccc(Br)cc1)CO2`, with above 200 °C. Same read-out and setting: in the case of `CC1(C)Oc2ncnc(N)c2N=C1c1ccc(C2CCCCC2)cc1` it was 186 to 187 °C.

Another series addresses T1, human DGAT1 (Homo sapiens, UniProt O75907).
T1 construct: made in house; host or cells: insect cells (sf9, sf21 or High Five) infected with baculovirus; total cell membranes
T1 sequence (O75907 1-488): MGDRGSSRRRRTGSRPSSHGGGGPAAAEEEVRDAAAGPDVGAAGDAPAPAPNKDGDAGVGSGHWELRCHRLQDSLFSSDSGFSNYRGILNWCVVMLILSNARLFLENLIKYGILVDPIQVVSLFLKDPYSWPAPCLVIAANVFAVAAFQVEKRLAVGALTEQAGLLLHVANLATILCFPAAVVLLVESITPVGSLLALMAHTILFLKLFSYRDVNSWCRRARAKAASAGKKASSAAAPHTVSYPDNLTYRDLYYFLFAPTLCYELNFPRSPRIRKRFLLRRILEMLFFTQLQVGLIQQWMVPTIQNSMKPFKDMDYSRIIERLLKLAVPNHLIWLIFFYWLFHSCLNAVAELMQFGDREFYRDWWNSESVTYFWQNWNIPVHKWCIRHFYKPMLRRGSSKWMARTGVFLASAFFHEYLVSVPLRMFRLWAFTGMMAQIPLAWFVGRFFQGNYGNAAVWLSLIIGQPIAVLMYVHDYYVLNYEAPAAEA
The series is described as follows: DGAT Scintillation Proximity Assay (SPA) with membranes of insect cells expressing human flagtag DGAT1. As to conditions: read-out: hDGAT1 IC50. The class given is biochemical. The protocol:
In such an assay human DGAT1 is cloned from a human liver cDNA library. PCR is used to add a restriction site and flag epitope at the most 5′ end and a restriction site at the 3′ end of the sequence. Thereafter, human flagtag (FT) DGAT1 baculovirus may be generated using a Bac-to-Bac Baculovirus Expression System® (Invitrogen). Insect cells (e.g., sf9, sf2 1, or High Five) are infected for 24 to 72 h and collected by centrifugation. Cell pellets are resuspended in homogenization buffer and lysed using a homogenization device, such as a Microfluidizer. Total cell membranes are collected by ultracentrifugation at 45,000 rpm for 1 h.
A small aliquot (0.2 μg/well) of membrane is incubated with 10 μM compound or mercuric chloride (as positive control for inhibition) in the presence of enzyme substrate, dioleoyl glycerol (200 μM) in 384 well plates, final volume 50 gL per well. […] The reaction is stopped by adding Wheat Germ Agglutinin (WGA) SPA beads (0.2 mg) in mercuric chloride. Cell membranes are allowed to couple to the beads overnight. The signal can be measured using, for example, a Chemiluminescence Image Plate Reader (CLIPR) or TopCount device.
On the technique in general: Scintillation proximity formats need no separation of bound from free tracer.
As a reminder, the IC50 is the concentration that inhibits the measured activity by half. As for `CC1(C)Oc2ncnc(N)c2N=C1c1ccc([C@H]2CC[C@H](CCNC(=O)[C@@H]3C[C@@H](O)CN3)CC2)cc1` [Example 2-183], the IC50 lay within 0.01 to 0.1 µM. Consider `Cc1nc(N)c2c(n1)OC(C)(C)C(c1ccc(C3CC(CCC(=O)O)C3)cc1)=N2` (centres unmarked) [Example 2-149], for which the IC50 was in the range of 0.01 to 0.1 µM.

In the case of `CC1(C)Oc2ncnc(N)c2N=C1c1ccc([C@H]2CC[C@H](Cc3cc(O)[nH]n3)CC2)cc1` [Example 2-59], the IC50 was in the range of 0.01 to 0.1 µM.

`Cc1nc(N)c2c(n1)OC(C)(C)C(c1ccc([C@H]3CC[C@H](CCNC(=O)CO)CC3)cc1)=N2` [Example 2-160]: the IC50 was 0.01 to 0.1 µM.

As to `Nc1ncnc2c1N=C(c1ccc(F)cc1)CO2` [Example 1-2], the IC50 was above 0.1 µM.

With `CC1(C)Oc2ncnc(N)c2N=C1c1ccc([C@H]2CC[C@H](C(=O)NCCO)CC2)cc1` [Example 2-203], the IC50 lay within 0.01 to 0.1 µM. On the same count and under the same terms, in the case of `CC1(C)Oc2ncnc(N)c2N=C1c1ccc([C@H]2CC[C@H](C(=O)NCC(=O)O)CC2)cc1` [Example 2-205] it was 0.01 to 0.1 µM.

Take `CN(C(=O)CO)[C@H]1CC[C@H](c2ccc(C3=Nc4c(N)ncnc4OC3(C)C)cc2)CC1` [Example 2-105]: the IC50 is 0.01 to 0.1 µM. On the same count and under the same terms, in the case of `CC(C)NC[C@H]1CC[C@H](c2ccc(C3=Nc4c(N)ncnc4OC3(C)C)cc2)CC1` [Example 2-114] it was 0.01 to 0.1 µM; in that of `CC1(C)Oc2ncnc(N)c2N=C1c1ccc([C@H]2CC[C@H](CN3CCN(C(N)=O)CC3)CC2)cc1` [Example 2-246], 0.01 to 0.1 µM. As to `CC1(C)Oc2ncnc(N)c2N=C1c1ccc(-c2ccncc2)cc1` [Example 2-28], the IC50 is above 0.1 µM. Same read-out and setting: then `Cc1nc(N)c2c(n1)OC(C)(C)C(c1ccc([C@H]3CC[C@H](Cn4oc(=O)[nH]c4=O)CC3)cc1)=N2` [Example 2-157], with below 0.01 µM. On the same count and under the same terms, then `Cc1nc(N)c2c(n1)OC(C)(C)C(c1ccc([C@H]3CC[C@H](Cc4nc(=O)on4C)CC3)cc1)=N2` [Example 2-168], with 0.01 to 0.1 µM.

In the case of `CC(C)(C)OC(=O)NS(=O)(=O)NC[C@H]1CC[C@H](c2ccc(C3=Nc4c(N)ncnc4OC3(C)C)cc2)CC1` [Example 2-125], the half-maximal inhibitory concentration (IC50) was below 0.01 µM.

Consider `CC1(C)Oc2ncnc(N)c2N=C1c1ccc([C@H]2CC[C@H](CNC(=O)CO)CC2)cc1` [Example 2-91], for which the IC50 lay in the range of 0.01 to 0.1 µM. `CCC(C(=O)O)C1CCC(c2ccc(C3=Nc4c(N)nc(C(F)(F)F)nc4OC3(C)C)cc2)CC1` (centres unmarked) [Example 10-28]: the IC50 was below 0.01 µM. Still for that read-out and setting: then `CC1(C)Oc2ncnc(N)c2N=C1c1ccc([C@H]2CC[C@H](CN)CC2)cc1` [Example 2-63], with 0.01 to 0.1 µM; and `CC1(C)Oc2ncnc(N)c2N=C1c1ccc2c(c1)C(C)(C)CCC21CCC(CC(=O)O)CC1` (centres unmarked) [Example 10-11], with 0.01 to 0.1 µM. Still for that read-out and setting: then `Cc1ccc(C2=Cc3c(N)ncnc3OC2(C)C)cc1` [Example 7-3], with above 0.1 µM; and `CC1(C)Oc2ncnc(N)c2N=C1c1ccc(C2CCC(N3CCCC3)CC2)cc1` (centres unmarked) [Example 2-89], with above 0.1 µM; and `Cc1nc(N)c2c(n1)OC(C)(C)C(c1ccc([C@H]3CC[C@H](CC(=O)O)CC3)cc1)C2` (some centres unmarked) [Example 7-2], with 0.01 to 0.1 µM.

On to `CC1(C)Oc2ncnc(N)c2N=C1c1ccc(C2CCC(C(O)C(=O)O)CC2)cc1` (centres unmarked) [Example 10-6], for which the IC50 was 0.01 to 0.1 µM. Still for that read-out and setting: then `CN1CCN(C(=O)CC[C@H]2CC[C@H](c3ccc(C4=Nc5c(N)ncnc5OC4(C)C)cc3)CC2)CC1` [Example 2-181], with 0.01 to 0.1 µM.
